Test results from US8178506B2, “Oligomeric compounds and compositions for use in modulation of small non-coding RNAs” (Regulus Therapeutics Inc., priority 2003, dated 2012).
In the oligonucleotide strings, read from the 5' end, every base follows the letter of its sugar. An asterisk marks phosphorothioate; unmarked linkages are phosphodiester. Other units and linkages are bracketed, terminal groups are in braces. A string of capitals states the bases alone. e = 2'-O-(2-methoxyethyl) (MOE); [5mC] = 5-methylcytosine; d = 2'-deoxy (DNA)

Columns and labels:
[1] = test system: mir-143 miRNA; assay: Northern blot of mature mir-143 in kidney of ob/ob mice; type: in vivo, mouse; conditions: twice weekly at 25 mg/kg, saline = 100%
Method: In addition, Northern blot analyses were performed to quantitate the expression of mature mir-143 in kidney samples of ob/ob mice treated with oligomeric compounds of the present invention. The mir-143 specific DNA oligonucleotide probe (SEQ ID NO: 319) described above was used to detect expression levels of the mir-143 miRNA in ob/ob mice treated (twice weekly at 25 mg/kg) with ISIS Numbers 327901, the uniform 2′-MOE oligomeric compound, or ISIS Number 340927, the 5-10-7 gapmer compound, both targeted to mir-143, versus saline treated animals or animals treated with ISIS 342672 (SEQ ID NO: 789), a uniform 2′-MOE scrambled negative control oligomeric compound. Expression levels were normalized against the U6 RNA and the expression levels of saline treated animals were set at 100%. […] In kidney samples from mice treated with the gapmer oligomeric compound targeting mir-143, ISIS Number 340927, a 23% reduction in in vivo expression levels of the mature mir-143 miRNA was observed.

[2] = test system: T47D cells; assay: Caspase-3 activity assay (apoptosis) in T47D cells; conditions: T47D cells, 48 hours
[3] = test system: mir-15a pri-miRNA; assay: mir-15a pri-miRNA expression in T47D cells (real-time RT-PCR); type: cell-based, human; conditions: real-time RT-PCR
Method in brief: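 T47D cells transfected with 100 nM uniform 2′-MOE or gapmer oligomers. Pri-miRNA measured by real-time RT-PCR with a mir-15a-specific primer/probe set, normalized to 5.8S rRNA, expressed as percentage of untreated control RNA levels.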

Substance	decrease in in vivo expression levels of the mature mir-143 miRNA [1]	mir-15a pri-miRNA expression % UTC [3]	further results
TGAGCTACAGTGCTTCATCTCA [ISIS 327901] (chemistry not given here) [uniform 2′-MOE PS; targets mir-143]	~40%		
TGAGCTACAGTGCTTCATCTCA [ISIS 340927] (chemistry not given here) [5-10-7 2′-MOE gapmer PS; targets mature mir-143]	23%		
328691 (e[5mC]*e[5mC]*e[5mC]*e[5mC]*eA*dT*d[5mC]*dT*dT*dA*dG*d[5mC]*dA*dT*d[5mC]*eT*eA*eA*eG*eG) [compound 328691]			Fold Increase over UTC (caspase activity) ([2]; 200 nM, relative to untreated control): 0.9
328382 (e[5mC]*eA*eG*eA*e[5mC]*dT*d[5mC]*d[5mC]*d[5mC]*dA*dA*d[5mC]*dT*dG*dA*e[5mC]*e[5mC]*eA*eG*eA) [compound 328382]			Fold Increase over UTC (caspase-3 activity, apoptosis) ([2]; 200 nM oligomeric compound, experiment of Table 10): 0.9 fold
327951 (antisense e[5mC]*eA*e[5mC]*eA*eA*eA*e[5mC]*e[5mC]*eA*eT*eT*eA*eT*eG*eT*eG*e[5mC]*eT*eG*e[5mC]*eT*eA) [compound 327951]		713 % UTC	
327901 (antisense eT*eG*eA*eG*e[5mC]*eT*eA*e[5mC]*eA*eG*eT*eG*e[5mC]*eT*eT*e[5mC]*eA*eT*e[5mC]*eT*e[5mC]*eA) [compound 327901]		132 % UTC	
